Read-outs that look alike come from different tables or passages of the source.

The values below come from US6509344B1, “Indenoisoquinolines as antineoplastic agents” (The United States of America as represented by the …, priority 1998, dated 2003).

Data set [1] concerns approximately 55 different cancer cell lines of diverse tumor origins. Kind of data set: NCI screen mean graph midpoint over all cell lines tested. Format: cell-based, human. The settings on record: for IC50: average GI50 for all cell lines tested (approximately 55), values outside test range taken as 10^-8 or 10^-4 molar, read-out: MGM (mean graph midpoint). The source says:
(§1) Considering the diversity of cancer in terms of cell type, morphology, growth rate and other cellular characteristics, the U.S. National Cancer Institute (NCI) has developed a “disease-oriented” approach to anticancer activity screening (M. R. Boyd, in “Principle of Practice of Oncology” […]. Rosenberg (Eds.) Vol. 3, PPO Update, No. 10, 1989). This in vitro prescreening system is based on the measurement of anticancer cytotoxicity against human cancer cell line panels consisting of approximately 60 cell lines of major human cancers (including leukemia and slower growing tumor cells such as lung, colon, breast, skin, kidney, etc.) and is referred hereinafter as “COMPARE” screening. An important advantage of the new in vitro screening panels is the opportunity to facilitate identification of compounds that are selectively more cytotoxic to cells of certain types of cancers, thus increasing the ability to select compounds for further study with respect to specific diseases. The indenoisoquinolines were examined for antiproliferative activity against the human cancer cell lines in the National Cancer Institute screen (COMPARE screening), in which the activity of each compound was evaluated with approximately […] different cancer cell lines of diverse tumor origins.

The subject of a further data set is UACC-62. Kind of data set: NCI human cancer cell line screen (COMPARE screening), Melanoma UACC-62. The format is cell-based.
Source text: as §1

The next data set has as its system DU-145. Kind of data set: NCI human cancer cell line screen (COMPARE screening), Prostate DU-145. The format is cell-based.
Source text: as §1

A further data set deals with HOP-62. Kind of data set: NCI human cancer cell line screen (COMPARE screening), Lung HOP-62. The format is cell-based.
Source text: as §1

Another data set concerns SF-539. Kind of data set: NCI human cancer cell line screen (COMPARE screening), CNS SF-539. The format is cell-based.
Source text: as §1

A further data set relates to HCT-116. Kind of data set: NCI human cancer cell line screen (COMPARE screening), Colon HCT-116. The format is cell-based.
Source text: as §1

In another data set the test system is OVCAR-3. Kind of data set: NCI human cancer cell line screen (COMPARE screening), Ovarian OVCAR-3. Format: cell-based.
Source text: as §1

A further data set relates to SN12C. Kind of data set: NCI human cancer cell line screen (COMPARE screening), Renal SN12C. The format is cell-based.
Source text: as §1

Another data set has as its system human topoisomerase II. Kind of data set: Topoisomerase II-mediated DNA cleavage assay (5'-end-labeled human c-myc DNA). Format: biochemical.
The next data set has as its target T1, topoisomerase I (Homo sapiens, UniProt P11387).
T1 sequence (P11387 1-765): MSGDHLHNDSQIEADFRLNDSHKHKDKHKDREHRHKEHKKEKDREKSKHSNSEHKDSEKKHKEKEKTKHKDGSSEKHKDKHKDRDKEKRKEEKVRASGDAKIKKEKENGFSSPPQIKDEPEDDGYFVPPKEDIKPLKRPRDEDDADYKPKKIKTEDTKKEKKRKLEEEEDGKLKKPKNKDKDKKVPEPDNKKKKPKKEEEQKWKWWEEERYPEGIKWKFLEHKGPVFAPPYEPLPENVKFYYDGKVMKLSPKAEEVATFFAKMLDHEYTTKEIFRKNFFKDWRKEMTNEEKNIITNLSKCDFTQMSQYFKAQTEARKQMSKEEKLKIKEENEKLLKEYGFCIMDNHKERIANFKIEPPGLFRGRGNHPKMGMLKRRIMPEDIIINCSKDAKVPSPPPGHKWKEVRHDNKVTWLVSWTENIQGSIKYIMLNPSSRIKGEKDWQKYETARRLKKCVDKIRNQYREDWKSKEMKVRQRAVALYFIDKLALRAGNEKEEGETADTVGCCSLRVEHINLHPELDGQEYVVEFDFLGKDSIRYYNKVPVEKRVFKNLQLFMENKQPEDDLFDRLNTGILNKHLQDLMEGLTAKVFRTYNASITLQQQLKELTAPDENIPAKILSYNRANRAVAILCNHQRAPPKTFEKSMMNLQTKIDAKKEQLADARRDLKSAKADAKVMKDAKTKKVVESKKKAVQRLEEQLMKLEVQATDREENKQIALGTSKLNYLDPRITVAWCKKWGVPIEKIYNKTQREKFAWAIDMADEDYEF
Kind of data set: Topoisomerase I-mediated DNA cleavage assay (3'-end-labeled 161 bp pBluescript SK(-) fragment). Format: biochemical. Conditions: for Top 1 Cleavage: relative to the activity of 1 μM camptothecin. Here is the method: Topoisomerase I-Mediated DNA Cleavage Reactions Using 3′-End-labeled 161 BP Plasmid DNA
The 161 bp fragment from pBluescript SK(−) phagemid DNA (Stratagene, La Jolla, Calif.) was cleaved with the restriction endonuclease Pvu II and Hind III (New England Biolabs, Beverly, Mass.) in supplied NE buffer 2 (10 μL reactions) for 1 h at 37° C., separated by electrophoresis in a 1% agarose gel made in 1×TBE buffer. The 161 bp fragment was eluted from the gel slice (centrilutor by Amicon) and concentrated in a centricon 50 centrifugal concentrator (Amicon, Beverly, Mass.). Approximately 200 ng of the fragment was 3′-end-labeled at the Hind III site by fill-in reaction with [alpha-^32P]-dCTP and 0.5 mM dATP, dGTP, and dTTP, in React 2 buffer (50 mM Tris-HCl, pH 8.0, […], 50 mM NaCl) with 0.5 units of DNA polymerase I (Klenow fragment). Labeling reactions were followed by phenol-chloroform extraction and ethanol precipitation. The resulting 161 bp 3′-endlabeled DNA fragment was resuspended in water. Aliquots (approximately 50,000 dpm/reaction) were incubated with topoisomerase I at 30° C. for 15 min in the presence of the indicated drug. Reactions were terminated by adding 0.5% SDS. After ethanol precipitation, the samples were resuspended in loading buffer (80% formamide, 10 mM sodium hydroxide, 1 mM sodium EDTA, 0.1% xylene cyanol, and 0.1% bromophenol blue, pH 8.0), and separated in a denaturing gel (16% polyacrylamide, 7 M urea) run at 51° C. The gel was dried and visualized by using a Phosphoimager and ImageQuant software (Molecular Dynamics, Sunnyvale, Calif.).

In the next data set the test system is MDA-MB-435. Kind of data set: NCI human cancer cell line screen (COMPARE screening), Breast MDA-MB-435. The format is cell-based.
Source text: as §1

In data set [2] the target is T2, topoisomerase I cleavage complexes (Homo sapiens, UniProt P11387).
T2 sequence (P11387 1-765): T1 sequence (P11387 1-765)
Kind of data set: Salt reversal of topoisomerase I cleavage complexes. Format: biochemical. Conditions: increasing salt concentration.

Where [3] appears, read: Homo sapiens, UACC-62, concentration causing 50% growth inhibition, read-out: Cytotoxicity (G150 in μM) Melanoma UACC-62.
[4] abbreviates: Homo sapiens, DU-145, concentration causing 50% growth inhibition, read-out: Cytotoxicity (G150 in μM) Prostate DU-145.
The mark [5] stands for this setting: Homo sapiens, HOP-62, concentration causing 50% growth inhibition, read-out: Cytotoxicity (G150 in μM) Lung HOP-62.
The mark [6] stands for this setting: Homo sapiens, SF-539, concentration causing 50% growth inhibition, read-out: Cytotoxicity (G150 in μM) CNS SF-539.
The mark [7] stands for this setting: Homo sapiens, HCT-116, concentration causing 50% growth inhibition, read-out: Cytotoxicity (G150 in μM) Colon HCT-116.
Setting [8] is: Homo sapiens, OVCAR-3, concentration causing 50% growth inhibition, read-out: Cytotoxicity (G150 in μM) Ovarian OVCAR-3.
Where [9] appears, read: Homo sapiens, SN12C, concentration causing 50% growth inhibition, read-out: Cytotoxicity (G150 in μM) Renal SN12C.
Where [10] appears, read: Homo sapiens, MDA-MB-435, concentration causing 50% growth inhibition, read-out: Cytotoxicity (G150 in μM) Breast MDA-MB-435.

As to `COc1cc2c(cc1OC)[C@H]1C(=O)c3cc4c(cc3[C@H]1N(C)C2=O)OCO4` (relative stereo) [Compound 20, cis-5,6,12,13-Tetrahydro-2,3-dimethoxy-6-methyl-5,11-dioxo-8,9(methylenedioxy)-(11H)indeno[1,2-c]isoquinoline], in data set [1], the “cytotoxicity (MGM) relative to lead compound 1” value is given as “lower MGM than the lead compound 1”. Also, the IC50 was 5 µM in data set [1]; 0.42 µM in the data set on UACC-62; 4.1 µM with DU-145; 9.4 µM in the data set with HOP-62; 3.1 µM with SF-539; 2 µM in the data set with HCT-116. For the same compound, the values for the IC50 in the data set on OVCAR-3, in the data set on SN12C and in the data set on MDA-MB-435 were 6.7 µM, 2.1 µM and 17 µM, respectively. For the same compound, the “induction of topoisomerase II cleavage complexes” value (“induction” below) in the data set with human topoisomerase II was “no effect”. Further, at topoisomerase I, the “activity in the topoisomerase I cleavage assay (in words)” value (shortened to “activity”) is reported as “weak”. Moreover, the “Top 1 Cleavage” value on topoisomerase I was “± (those compounds having less than 20% of the activity of 1 μM camptothecin)”.

For the compound `O=C1c2ccccc2-c2c1c1ccccc1c(=O)n2CCCCO` [Compound 7, 5,6-Dihydro-6-(4-hydroxy-1-butyl)-5,11-diketo-11H-indeno[1,2-c]isoquinoline], the IC50 in data set [1] (Homo sapiens) is 16 µM; in the data set on UACC-62 (setting [3]) it was 4.4 µM; with DU-145 (setting [4]), over 100 µM; with HOP-62 (setting [5]) it was 13 µM; in the data set with SF-539 (setting [6]) it was 4.6 µM; in the data set with HCT-116 (setting [7]), 3.2 µM. The IC50 in the data set with OVCAR-3 (setting [8]) is 74 µM; in the data set on SN12C (setting [9]) it was 7.4 µM; in the data set with MDA-MB-435 (setting [10]) it was over 100 µM. In data set [1] (comparison in words), the “cytotoxicity (MGM) relative to lead compound 1” value is “lower MGM than the lead compound 1”. Further, in the data set on human topoisomerase II, the “induction” value is “weak topoisomerase II activity”. In addition, the “Top 1 Cleavage” value at topoisomerase I is “+ (those compounds having between 20% and 50% of the activity of 1 μM camptothecin)”.

Take `O=C1c2ccccc2-c2c1c1ccccc1c(=O)n2CCCCCO` [Compound 8, 5,6-Dihydroxy-6-(5-hydroxy-1-pentyl)-5,11-diketo-11H-indeno[1,2-c]isoquinoline]: the “cytotoxicity (MGM) relative to lead compound 1” value in [1] was “lower MGM than the lead compound 1”. Also, the IC50 amounted to 14 µM in data set [1]; 14.3 µM in the data set on UACC-62; 3.4 µM in the data set on DU-145; 4.4 µM in the data set with HOP-62; 3.9 µM in the data set with HCT-116; 93 µM in the data set with OVCAR-3. Moreover, in the data set with MDA-MB-435, the IC50 was found to be 41 µM. Besides, the “induction” value in the data set on human topoisomerase II is “weak topoisomerase II activity”. For the same compound, the “Top 1 Cleavage” value on topoisomerase I was “+ (those compounds having between 20% and 50% of the activity of 1 μM camptothecin)”.

As for `CCCCn1c2c(c3ccccc3c1=O)C(=O)c1cc3c(cc1-2)OCO3` [Compound 13b, 6-(1-Butyl)-5,6-dihydro-5,11-diketo-8,9-methylenedioxy-11H-indeno[1,2-c]isoquinoline], the IC50 stood at 30 µM in data set [1] (Homo sapiens); 8.2 µM with UACC-62 (setting [3]); 38 µM in the data set with DU-145 (setting [4]); 17 µM in the data set on HOP-62 (setting [5]); 9 µM in the data set with SF-539 (setting [6]); 2.9 µM with HCT-116 (setting [7]). Also, the IC50 with OVCAR-3 (setting [8]) is 94 µM; in the data set on SN12C (setting [9]), 37 µM; in the data set on MDA-MB-435 (setting [10]), over 100 µM. Moreover, in the data set on human topoisomerase II, the “induction” value is reported as “no effect”. Moreover, the “Top 1 Cleavage” value on topoisomerase I is “+ (those compounds having between 20% and 50% of the activity of 1 μM camptothecin)”.

Regarding `C=CCn1c2c(c3cc(OC)c(OC)cc3c1=O)C(=O)c1cc3c(cc1-2)OCO3` [Compound 13c, 6-Allyl-2,3-dimethoxy-5,6-dihydro-5,11-oxo-8,9-(methylenedioxy)-11H-indeno[1,2-c]isoquinoline], the “reversal of induced cleavage sites by salt treatment” value in data set [2] is reported as “reversed by salt treatment”. The IC50 in data set [1] is 4.2 µM; in the data set on DU-145, 3.2 µM; with HOP-62 it was 3.4 µM; in the data set with SF-539 it was 2.2 µM; in the data set with HCT-116, 2.3 µM; with OVCAR-3, 6.6 µM. For the same compound, the IC50 amounted to 2.6 µM in the data set with SN12C and 5.2 µM with MDA-MB-435. Moreover, the “induction” value with human topoisomerase II is listed as “no effect”. Also, the “activity” value at topoisomerase I is recorded as “rival the topoisomerase activity of 1”. For the same compound, the “Top 1 Cleavage” value on topoisomerase I was “+ (those compounds having between 20% and 50% of the activity of 1 μM camptothecin)”.

On to `CCn1c2c(c3cc(OC)c(OC)cc3c1=O)C(=O)c1cc3c(cc1-2)OCO3` [Compound 13k, 6-Ethyl-5,6-dihydro-5,11-diketo-2,3-dimethoxy-8,9-methylenedioxy-11H-indeno[1,2-c]isoquinoline], for which the IC50 in [1] (Homo sapiens) came out at 2.4 µM; with UACC-62 (setting [3]) it was 2.1 µM; in the data set on DU-145 (setting [4]), 2.3 µM; with HOP-62 (setting [5]), 2.2 µM; with SF-539 (setting [6]), 2 µM; in the data set on HCT-116 (setting [7]) it was 2.6 µM. Moreover, the results for the IC50 in the data set with OVCAR-3 (setting [8]), with SN12C (setting [9]) and in the data set on MDA-MB-435 (setting [10]) were 3 µM, 3.6 µM and 2.6 µM, respectively. Besides, in data set [1] (comparison in words), the “cytotoxicity (MGM) relative to lead compound 1” value is reported as “lower MGM than the lead compound 1”. Further, in the data set with human topoisomerase II, the “induction” value is reported as “no effect”. Further, on topoisomerase I, the “activity” value was “very weak activity”. Moreover, the “Top 1 Cleavage” value on topoisomerase I is given as “± (those compounds having less than 20% of the activity of 1 μM camptothecin)”.

Regarding `CC[C@@]1(O)C(=O)OCc2c1cc1n(c2=O)Cc2cc3ccccc3nc2-1` [Compound 34, camptothecin, reference compound], the “reversal of induced cleavage sites by salt treatment” value in data set [2] is recorded as “reversed by salt treatment”.
